Measurements taken from patent publication US9359381B2, “Tricyclic compounds for inhibiting the CFTR channel” (Novartis AG, priority 2012, dated 2016).

Molecular target: T1, WT-CFTR channels (Homo sapiens, UniProt P13569)
T1 construct: expressed in transfected cells
Assay: IonWorks Quattro CFTR inhibitor assay (whole-cell planar patch clamp)
Format: cell-based
Conditions: inward current (−100 mV); CHO cells stably expressing WT-CFTR; CFTR activated by 10 μM forskolin; 10 min compound incubation

T1 sequence (P13569 whole entry): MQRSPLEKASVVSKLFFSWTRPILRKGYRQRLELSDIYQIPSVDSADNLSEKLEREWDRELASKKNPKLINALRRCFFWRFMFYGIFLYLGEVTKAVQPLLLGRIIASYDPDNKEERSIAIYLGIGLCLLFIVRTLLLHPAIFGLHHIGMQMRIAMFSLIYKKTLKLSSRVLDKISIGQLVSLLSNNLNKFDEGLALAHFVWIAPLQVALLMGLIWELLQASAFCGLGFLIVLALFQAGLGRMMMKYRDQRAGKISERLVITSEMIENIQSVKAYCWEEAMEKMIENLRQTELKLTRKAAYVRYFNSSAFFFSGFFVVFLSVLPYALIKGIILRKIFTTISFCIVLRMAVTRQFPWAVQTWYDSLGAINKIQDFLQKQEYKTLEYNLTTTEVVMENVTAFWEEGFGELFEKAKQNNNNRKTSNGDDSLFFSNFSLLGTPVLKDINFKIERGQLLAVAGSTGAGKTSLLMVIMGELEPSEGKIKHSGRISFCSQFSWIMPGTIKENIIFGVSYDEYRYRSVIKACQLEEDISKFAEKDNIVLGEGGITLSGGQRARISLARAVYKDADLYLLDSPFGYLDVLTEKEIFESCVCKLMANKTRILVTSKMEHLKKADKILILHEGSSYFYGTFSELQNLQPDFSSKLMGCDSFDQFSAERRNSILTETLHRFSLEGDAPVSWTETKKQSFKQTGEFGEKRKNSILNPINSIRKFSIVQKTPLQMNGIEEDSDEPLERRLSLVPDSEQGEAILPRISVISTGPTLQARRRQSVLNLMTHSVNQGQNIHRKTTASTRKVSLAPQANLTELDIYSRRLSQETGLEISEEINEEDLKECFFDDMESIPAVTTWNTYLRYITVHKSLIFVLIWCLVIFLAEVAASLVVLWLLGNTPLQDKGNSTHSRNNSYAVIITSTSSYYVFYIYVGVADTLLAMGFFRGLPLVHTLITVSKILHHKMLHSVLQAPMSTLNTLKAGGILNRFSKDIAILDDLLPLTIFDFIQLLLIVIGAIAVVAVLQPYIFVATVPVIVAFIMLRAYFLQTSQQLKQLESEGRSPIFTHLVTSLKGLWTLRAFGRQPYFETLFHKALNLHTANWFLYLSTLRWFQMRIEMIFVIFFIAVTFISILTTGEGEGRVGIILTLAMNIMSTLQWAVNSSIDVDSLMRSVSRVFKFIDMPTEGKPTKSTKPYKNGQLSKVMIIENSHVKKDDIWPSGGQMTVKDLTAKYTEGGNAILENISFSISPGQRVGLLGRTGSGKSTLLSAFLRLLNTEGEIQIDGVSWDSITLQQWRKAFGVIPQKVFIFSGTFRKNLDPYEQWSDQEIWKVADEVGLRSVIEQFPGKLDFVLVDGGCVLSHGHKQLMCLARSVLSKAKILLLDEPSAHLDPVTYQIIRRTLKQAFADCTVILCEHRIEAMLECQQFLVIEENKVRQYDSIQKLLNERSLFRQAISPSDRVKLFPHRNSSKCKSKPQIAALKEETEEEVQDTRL

IC50: 0.05 µM
SMILES: Cc1csc(-c2c3c(=O)n(C)c(=O)n(C)c3c3n2CCC[C@H]3c2nc(Cl)cs2)n1 (single isomer, unassigned) [Example 13.2a, 10-(4-chlorothiazol-2-yl)-1,3-dimethyl-5-(4-methylthiazol-2-yl)-7,8,9,10-tetrahydropyrimido[4,5-a]indolizine-2,4(1H,3H)-dione]
